Where “and” joins values, the source holds several entries; their conditions need not be identical. Identical values can stand only once. Calls of active or inactive are those of the source.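 How the source made its calls: active means EC50 under a set limit in control cells lacking the mosquito receptor, marking a fluorescence artifact; inactive means the rest.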
Each compound was assayed against HEK293 Galpha15/GCaMP6s without NPYLR7, calcium fluorescence (assay: calcium response in NPYLR7-null HEK293 cells, dose response, counter-screen for mosquito NPYLR7 agonist project, cell-based, HEK293 lacking NPYLR7 (AID 1259426);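 further: potency for a rise in fluorescence over baseline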).

Row | SMILES | EC50
1 | CCCN1CCc2c(sc3c2c(NC(CC)CO)nc2nnnn23)C1 (stereo unspecified) | > 20 µM (inactive)
2 | CCCc1ccccc1N1C(=O)CSC1c1ccc(NC(=O)CCl)cc1 (stereo unspecified) | > 20 µM (inactive)
3 | O=C(NCCSc1ccc(Cl)cc1)c1ccc2c(=O)n3c(nc2c1)CCC3 | > 20 µM (inactive)
4 | COc1ccc(C(C)NS(=O)(=O)c2ccc(Cl)cc2C(F)(F)F)cc1F (stereo unspecified) | 15.3 µM
5 | O=C(O)CN1C(=O)/C(=C/c2cc(Br)c(O)c(Br)c2)SC1=S | 0.289 µM
6 | COc1cc(C=C2SC(=S)NC2=O)cc(Br)c1O | > 20 µM (inactive)
7 | CC1C(=O)N(c2cccc(F)c2)CCN1C(=O)C1CC1 (stereo unspecified) | > 20 µM (inactive)
8 | Nc1ccc2c3c(cccc13)C(=O)NC2=O | 2.07 µM
9 | N#C/C(=C\c1ccc(O)c(O)c1)C(=O)NCc1ccccc1 | > 20 µM (inactive)
10 | CC(C)NC(=O)C(C)N1CCc2onc(-c3ccc(C(F)(F)F)cc3)c2C1 (stereo unspecified) | 8.58 µM
11 | CCN(CC)c1ccc(/C=C2\SC(=S)N(CCS(=O)(=O)O)C2=O)cc1 | 0.039 µM
12 | CN1C=CC(=C/C=C2/C=Nc3ccccc32)C=C1 | 9.41 µM
13 | Nc1nc(Cl)nc2c1ncn2[C@@H]1O[C@H](CO)[C@@H](O)[C@H]1O | 1.15 µM
14 | CN(C)c1ccc(/C=C2/SC(=S)N(CC(=O)O)C2=O)cc1 | 6.89 µM
15 | Clc1ccc(-c2noc3c2CN(CCn2cc(Cl)cn2)CC3)cc1 | 15.4 µM
16 | Cc1csc(-c2cc3ccc(O)c(CN4CCN(CCO)CC4)c3oc2=O)n1 | < 0.039 µM
17 | Cc1ccc(C2=NN(C(=O)CN3CCN(C)CC3)C(c3ccccc3Cl)C2)cc1 (stereo unspecified) | > 20 µM (inactive)
18 | COc1cccc(CNC2CC2)c1OCc1nc(CO)cs1 | > 20 µM (inactive)
19 | CC1(C)OC2OC(C(O)c3cc(O)c4c(c3O)C(=O)c3ccccc3C4=O)C(C)(O)C2O1 (stereo unspecified) | 1.86 µM
20 | Cc1cccc(N2C(=O)NC(=O)/C(=C/c3cn(C)c4ccccc34)C2=O)c1 | > 20 µM (inactive)
21 | Cn1c(C(C#N)=Cc2c(F)c(F)c(F)c(F)c2F)nc2ccccc21 | < 0.039 µM
22 | CC1CC2(C)Oc3ccccc3C3OCC1(CO)C(C)C32 (stereo unspecified) | > 20 µM (inactive)
23 | CC(C)C(=O)Nc1sc2c(c1-c1nc3ccccc3s1)CCN(C(C)C)C2 | > 20 µM (inactive)
24 | O=C(O)CCn1c(O)c(C=C2C=Nc3ccccc32)sc1=S | 12 µM
25 | Cc1nc2ncccc2cc1C(=O)N1CCC2(CCNC(=O)CC2)CC1 | > 20 µM (inactive)
26 | CN1C(=S)N(c2ccc3c(c2)CCC3)C(=O)/C1=C\c1ccncc1 | > 20 µM (inactive)

Row | SMILES | EC50
27 | N#CC1C(=N)Oc2cc(O)ccc2C1c1ccccc1I (stereo unspecified) | 7.42 µM
28 | Cc1c(NC(=O)COC(=O)C(C#N)=Cc2ccc(N(C)C)cc2)c(=O)n(-c2ccccc2)n1C | > 20 µM (inactive)
29 | O=C1CSC(=S)N1N=Cc1cc(Br)c(O)c(Br)c1 | 2.31 µM
30 | N#CC(C#N)=C1C=C2C=C(N3CCc4ccccc4C3)CCC2CC1 (stereo unspecified) | > 20 µM (inactive)
31 | O=C1c2cccc3c(NCCO)ccc(c23)C(=O)N1CCO | 0.0846 µM
32 | Cc1cc2nc3c(=O)[nH]c(=O)nc-3n(C[C@H](O)[C@H](O)[C@H](O)CO)c2cc1C | 0.508 µM
33 | COc1cc(C=C(C#N)S(=O)(=O)c2cc(Cl)ccc2Cl)cc(Br)c1O | 6.43 µM
34 | CCN(CC)c1ccc2cc(C(N)=O)/c(=N\NC(N)=S)oc2c1 | < 0.039 µM
35 | O=c1cc(C(F)(F)F)c2ccc(O)cc2o1 | 6.31 µM
36 | COc1ccc(OC)c(CCNc2nc3cnc(-c4ccc5c(c4)OCO5)cc3n2C)c1 | > 20 µM (inactive)
37 | CCN1CCc2c(sc(NC(=O)C3=COCCO3)c2-c2nc3ccccc3s2)C1 | 0.945 µM
38 | Cc1ccc2c(c1)CCCN2CC(=O)N(CCC(N)=O)c1ccccc1 | 16.8 µM
39 | COc1cccc(CN2C(=O)c3cccc(N)c3C2=O)c1 | > 20 µM (inactive)
40 | CCOc1cc(C=O)c(O)c(C=O)c1 | 0.893 µM
41 | CC[C@@]1(O)C(=O)OCc2c1cc1n(c2=O)Cc2cc3c(CN(C)C)c(O)ccc3nc2-1 | 0.188 µM and 1.35 µM
42 | COc1ccccc1OCCCOc1ccc(Br)cc1Cl | > 20 µM (inactive)
43 | COCCCNCc1c(-c2ccc(F)cc2)noc1N1CCOCC1 | > 20 µM (inactive)
44 | COc1cc(/C=C2\SC(=S)N(c3cccc(C(=O)O)c3)C2=O)ccc1O | > 20 µM (inactive)
45 | CCOC(=O)N1CCC(NC(=O)c2sc3nc4c(c(C(F)(F)F)c3c2N)CC(C)CC4)CC1 (stereo unspecified) | > 20 µM (inactive)
46 | COc1ccc(NC(=O)C2C=CCN2)cc1NC(=O)c1ccco1 (stereo unspecified) | > 20 µM (inactive)
47 | COc1ccc(OC)c(CCNc2nc3cnc(-c4cc(OC)c(OC)c(OC)c4)cc3n2C)c1 | > 20 µM (inactive)
48 | CCN1C(=Cc2cc(C)[n+](CC3CCCO3)c(C)c2)Sc2ccccc21 (stereo unspecified) | > 20 µM (inactive)
49 | N#CC(=Cc1c(F)c(F)c(F)c(F)c1F)c1ccccn1 | > 20 µM (inactive)
50 | CN(Cc1ccccc1)C1=CC2=CC(=C(C#N)C#N)CCC2CC1 (stereo unspecified) | > 20 µM (inactive)
51 | O=C1/C(=C/c2ccc3c(c2)OCO3)Oc2c1ccc1c2CN(CC2CCCO2)CO1 (stereo unspecified) | 8.39 µM
52 | NS(=O)(=O)c1ccc(NC(NC(=O)c2ccco2)C(=O)c2ccc(Cl)cc2)cc1 (stereo unspecified) | > 20 µM (inactive)

Row | SMILES | EC50
53 | CC1=NCCc2c1[nH]c1cc(O)ccc21 | 0.419 µM
54 | CCOC(=O)c1ccccc1-c1c2ccc(=N)cc-2oc2cc(N)ccc12 | < 0.039 µM
55 | N#Cc1cc(C(=O)c2cc(Cl)cc(Cl)c2O)cn(-c2nccs2)c1=O | > 20 µM (inactive)
56 | CCCc1[nH]n(-c2ccc(Cl)c(Cl)c2)c(=O)c1/C=C1\NC(=O)N(Cc2ccc(C)cc2)C1=O | 18.9 µM
57 | Nc1nc(Cl)nc2c1ncn2[C@@H]1O[C@H](CO)[C@H](O)C1O (stereo partly specified) | 1.42 µM
58 | COc1cc(/C=C2\SC(=S)N(C(C)C(=O)O)C2=O)ccc1O (stereo unspecified) | 3.02 µM
59 | O=c1oc2c(CN3CCN(CCO)CC3)c(O)ccc2cc1-c1nc2ccccc2s1 | < 0.039 µM
60 | FC(F)(F)c1cc(-c2cccs2)nc2ncnn12 | 18.3 µM
61 | Cc1cc(O)c(CN2CCCC2)c2c1C(=O)/C(=C/c1cc3ccccc3o1)O2 | > 20 µM (inactive)
62 | CCCC(C(=O)O)N1C(=O)/C(=C/c2ccc(O)cc2)SC1=S (stereo unspecified) | 8.28 µM
63 | CN(C)/C=C1\C(=O)N(c2c(Cl)cccc2Cl)c2cc(C=C(C#N)C#N)ccc21 | 18.4 µM
64 | COc1ccc(Cl)cc1Nc1nnc(-c2cc3c(ccc4ccccc43)oc2=O)s1 | > 20 µM (inactive)
65 | COCCN=Cc1cc(I)cc(I)c1O | > 20 µM (inactive)
66 | N#Cc1c(N)nc2c(c1N)C(Sc1ccccc1)c1ccc(O)cc1O2 (stereo unspecified) | < 0.039 µM
67 | COc1cc(OC)cc(C(=O)N2CCN(C(C(=O)Nc3ccc(NC(C)=O)cc3)C3CCCC3)CC2)c1 (stereo unspecified) | > 20 µM (inactive)
68 | CC(C)C(C(=O)O)N1C(=O)/C(=C/c2ccc(N(C)C)cc2)SC1=S (stereo unspecified) | 12 µM
69 | O[C@@H]1CN(Cc2ccncc2Cl)CC[C@H]1c1ccc2c(c1)OCO2 | > 20 µM (inactive)
70 | COc1ccc(/C=C2\Oc3c(ccc4c3CN(Cc3ccncc3)CO4)C2=O)cc1OC | 9.55 µM
71 | COc1ccc(C(=O)C=Cc2cc(OC)c(O)c(OC)c2)cc1F | 5.86 µM
72 | COCCOc1ccc(NS(=O)(=O)c2cn(C)c(Cl)n2)cn1 | 7.28 µM
73 | CCN(CC)c1ccc(/C=C2/SC(=S)N(CC(=O)O)C2=O)cc1 | 0.355 µM
74 | CCN(CC)c1ccc(/C=C2\SC(=S)N(CC(=O)O)C2=O)c(O)c1 | 1.15 µM
75 | COc1ccc(-n2ccnc2-c2ccc(C#CC(C)(C)O)cc2)cn1 | > 20 µM (inactive)
76 | Cc1oc(-c2cccc(NC(=O)CC(C)C)c2)nc1CNC(=O)Cc1cc(F)cc(F)c1 | > 20 µM (inactive)
